Experimental data as given in patent publication US9006221B2, “Method of modulating ship activity” (H. Lee Moffitt Cancer Center and Reserach Institute, Inc., priority 2008, dated 2015).

Columns and labels:
SHIP1 = target: T1, SHIP1 (Mus musculus, UniProt Q9ES52); assay: Fluorescence polarization (FP) assay of SHIP1 enzymatic activity; assay type: biochemical; settings: confirmatory FP assay of screening hits
T1 construct: The asterisk in lanes 1 and 3 indicates the ˜145 kD full-length SHIP protein; His tag (C); made in house; host or cells: E. coli Rosetta-Gami 2 (DE3) pLys
T1 sequence (Q9ES52 1-1191): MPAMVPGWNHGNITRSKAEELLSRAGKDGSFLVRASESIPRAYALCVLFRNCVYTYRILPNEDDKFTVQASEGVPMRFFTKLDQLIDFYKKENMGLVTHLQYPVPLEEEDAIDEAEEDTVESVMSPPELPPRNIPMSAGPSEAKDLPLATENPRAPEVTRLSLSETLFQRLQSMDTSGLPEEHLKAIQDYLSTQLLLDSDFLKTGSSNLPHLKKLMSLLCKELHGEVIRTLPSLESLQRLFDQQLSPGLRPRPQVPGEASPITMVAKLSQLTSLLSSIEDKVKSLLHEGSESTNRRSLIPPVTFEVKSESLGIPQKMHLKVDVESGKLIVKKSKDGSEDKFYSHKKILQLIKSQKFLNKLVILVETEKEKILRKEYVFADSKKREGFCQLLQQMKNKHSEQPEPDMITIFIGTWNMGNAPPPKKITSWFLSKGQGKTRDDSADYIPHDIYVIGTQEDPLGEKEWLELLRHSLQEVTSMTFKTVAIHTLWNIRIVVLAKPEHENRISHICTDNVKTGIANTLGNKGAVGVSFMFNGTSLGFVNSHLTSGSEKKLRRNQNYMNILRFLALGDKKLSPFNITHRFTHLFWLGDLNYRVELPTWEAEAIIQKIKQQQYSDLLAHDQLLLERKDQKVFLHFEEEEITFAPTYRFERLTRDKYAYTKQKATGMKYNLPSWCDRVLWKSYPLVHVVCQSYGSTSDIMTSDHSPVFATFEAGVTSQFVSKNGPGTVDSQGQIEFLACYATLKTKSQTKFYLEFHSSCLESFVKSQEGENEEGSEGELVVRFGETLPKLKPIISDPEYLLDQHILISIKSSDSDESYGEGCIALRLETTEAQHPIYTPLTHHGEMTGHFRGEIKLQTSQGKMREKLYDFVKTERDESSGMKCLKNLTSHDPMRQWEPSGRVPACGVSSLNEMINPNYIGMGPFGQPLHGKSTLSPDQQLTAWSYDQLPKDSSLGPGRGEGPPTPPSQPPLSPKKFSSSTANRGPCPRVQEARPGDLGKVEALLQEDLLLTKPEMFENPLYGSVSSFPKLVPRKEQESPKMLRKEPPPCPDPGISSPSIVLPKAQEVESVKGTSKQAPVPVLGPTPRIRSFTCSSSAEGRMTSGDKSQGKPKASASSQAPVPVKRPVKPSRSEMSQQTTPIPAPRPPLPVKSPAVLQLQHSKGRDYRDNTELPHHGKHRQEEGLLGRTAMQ
Description: SHIP is detectable in this expression system as a ˜145 kD protein (FIG. 1a, lane 1). Because of an in-frame Histidine (His) tag on the COOH terminus of SHIP, it can then be purified from E. coli lysates by FPLC over a Ni-containing resin. (FIG. 1a, lane 3). Purified SHIP was routinely obtained in sufficient quantities, using this E. coli expression system and FPLC purification, to conduct high-throughput screening (HTS) of chemical libraries for compounds that inhibit SHIP activity. However, prior to screening, a fluorescence polarization (FP) assay that detects SHIP activity in either a 96- or […] format, seen in FIG. 1b, screen was established. SHIP generates PI(3,4)P2 from its PI(3,4,5)P3 substrate. In the FP assay enzymatic generation of PI(3,4)P2 by SHIP reduces polarized fluorescence (mP) because the fluorescent PI(3,4)P2 “probe” is displaced from a detector protein that binds specifically to PI(3,4)P2. The FP assay is highly specific for SHIP activity in these lysates. No significant 5′-inositol phosphatase activity was detected in E. coli lysates harboring an ‘empty’ pet24b expression vector insert when FPLC fractions where SHIP typically elutes with the imidazole step gradient are analyzed in the FP assay (FIG. 1c).
After preparing purified SHIP and establishing the FP assay, two different chemical libraries, comprising a total of ˜2100 different chemical compounds, were screened. Seventeen compounds capable of inhibiting SHIP activity at μM concentrations were identified in this screen. The compounds were verified for SHIP activity inhibition by repeating the FP assay with the compounds obtained from their respective wells in the replicates of the masterplates for these libraries FIGS. 2-6).
A fluorescence polarization (FP) assay to detect and quantify SHIP2 activity has been previously described [Drees B E, et al., Comb Chem High Throughput Screen (2003) 6(4):321-330], but no assay has been described for the detection of SHIP1. A fluorescence polarization (FP) assay was developed to detect the activity of recombinant SHIP1 (see FIGS. 15a and b) and the FP assay was utilized as a rapid screen to detect compounds in chemical libraries that have inhibitory activity against SHIP1. This screen identified 3α-aminocholestane as a potent inhibitor of SHIP1 enzymatic activity (FIG. 15c). […] This high degree of selectivity could be important, since loss of PTEN function promotes malignancy in parenchymal and hematopoietic tissues. [Yuan T L & Cantley L C Oncogene (2008) 27(41):5497-5510; Zhang J, et al., Nature (2006) 441(7092):518-522; Yilmaz O H, et al., Nature (2006) 441(7092):475-482]
Assay of SHIP1 enzymatic activity: A fluorescent polarization (FP) assay that detects the 5′-inositol phosphatase activity of SHIP1 was developed based on a previously established protocol [Drees B E, et al., Comb Chem High Throughput Screen (2003) 6(4):321-330] and was obtained from Echelon Biosciences (Salt Lake City, USA). Modifications of the protocol included the application of SHIP1 in the assay and an increase in the concentration of MgCl2 to […] to maximize the activity of SHIP1 in this assay. Each enzymatic reaction was performed in a 96 well working plate and added in the following order and concentration: Recombinant SHIP1 (0.1 μg) in PBS+20 mM MgCl2, 100 μM of each individual compound from the NCI Diversity Set and then PI(3,4,5)P3 substrate diluted 1:10 in H2O. The enzymatic reaction was incubated for 30 min at room temperature. The detector, reaction mixture and probe were then combined according to the SHIP2 protocol. Malachite Green Phosphatase Assay Kit was obtained from Echelon Biosciences (Salt Lake City, USA). Assays for SHIP2 were performed according to the manufacturer's protocol. The concentration of SHIP1 and SHIP2 per reaction mixture was […]. PTEN was used at the concentration recommended by the manufacturer.

[1] = system: priming of allogeneic T cell responses by C57Bl6/J splenocytes; assay: One-way mixed leukocyte reaction (MLR), stimulator splenocytes treated in vitro; assay type: cell-based, mouse; settings: splenocytes cultured with compound 72 hr, added at 0, 24 and 48 hr
Experimental: Mean proliferation of 100K BALB/C responders as measured by ^3H-Thymidine uptake after exposure to 200K irradiated BL6 stimulators that were treated with the indicated compound, 1×DMSO or 1× EtOH prior to initiation of the mixed leukocyte reaction (MLR). 1×DMSO serves as the allogeneic MLR positive control for all compounds with the exception of HLM85321 for which 1× EtOH is the positive control. [*p<0.05, **p<0.01].
Spleen cells and lymphe node LN cells are normally robust stimulators of allogeneic T cell responses in the one-way mixed leukocyte reaction (MLR) assay, but they are very poor stimulators when obtained from mice with germline or induced SHIP-deficiency. […]
Mixed leukocyte reactions (MLR): Following RBC lysis, irradiated (2000 Rads) BL6 splenocytes (stimulators) at 8×10^5 cells/well were combined with BALB/c splenocytes (responders) at 4×10^5 cells/well in a one-way MLR assay. […] Incorporated [3H]thymidine was quantitated using a Packard TopCount NXT. Specific [3H]thymidine incorporation into genomic DNA was calculated as the average of the mean (±SEM) of sextuplicate wells. […]

## O=C1CN2CCN(CC2)CC(=O)Nc2ccc(cc2)S(=O)(=O)c2ccc(cc2)NC(=O)CN2CCN(CC2)CC(=O)Nc2ccc(cc2)S(=O)(=O)c2ccc(cc2)N1 [NSC 36806]
SHIP1
  SHIP inhibitory activity in FP assay: SHIP inhibitory activity

## Cc1ccc(C)c(/C(=N/N=C(N)N)C2CC2)c1.Cl [NSC75513, 2-[(E)-[cyclopropyl-(2,5-dimethylphenyl)methylidene]amino]guanidine chloride]
[1]
  ability of splenocytes to prime allogeneic T cell responses by BALB/C responders (3H-thymidine uptake): significantly inhibited

## CCOC(=O)c1c(C)c(C)n2c1NC(=O)C2 [NSC 624983]
SHIP1
  SHIP inhibitory activity in FP assay: SHIP inhibitory activity

## O=C1OC2(c3ccc(O)cc3Oc3cc(O)ccc32)c2c1c(-c1ccccc1)c(-c1ccccc1)c(-c1ccccc1)c2-c1ccccc1 [NSC 119886]
SHIP1
  SHIP inhibitory activity in FP assay: SHIP inhibitory activity
